Like-named read-outs stand apart in the source and are kept apart here.
What was measured:
Type in all cases: cell-based
[1] = system: SREBP-1; assay: SREBP-1 expression in cultured primary human hepatocytes; conditions: procedure of Example 6, read-out: SREBP-1 mRNA inhibition (EC50)
How it was run: (§1)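 Primary human hepatocytes in culture exposed to a range of HPN-01 derivative concentrations; SREBP-1 and SREBP-2 mRNA expression then measured to assess inhibition.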

[2] = system: SREBP-2; assay: SREBP-2 expression in cultured primary human hepatocytes; conditions: procedure of Example 6, read-out: SREBP-2 mRNA inhibition (EC50)
How it was run: as §1

[3] = system: Huh7 cells; assay: LD content in Huh7 cells pre-treated with insulin, Oil-Red-O staining, absorbance OD 540 nm; conditions: procedure of Example 3, read-out: LD content inhibition (EC50)
How it was run: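 Huh7 cells, mock-treated or pre-treated with 1 mM insulin, were then exposed to compound at the indicated amounts. Lipid droplets stained with Oil Red O and quantified by absorbance at OD 540 nm.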

[4] = Homo sapiens, Huh-7, Huh7 cells

| EC50 [3, 4] | Compound | EC50 ([1]; Homo sapiens, Hepatocyte) | EC50 ([2]; Homo sapiens, Hepatocyte) | EC50 [1] | EC50 [2] | EC50 ([3]; Huh7 cells) |
| --- | --- | --- | --- | --- | --- | --- |
| 2140 nM | NC(=O)c1cc(/C=C/C(=O)Nc2ccc(C(=O)O)cc2)cc(-c2ccc(S(N)(=O)=O)cc2)c1N [HPN-01121, (E)-4-(3-(6-amino-5-carbamoyl-4′-sulfamoyl-[1,1′-biphenyl]-3-yl)acrylamido)benzoic acid] | 6590 nM | 8040 nM |  |  |  |
|  | NCCC(=O)Nc1c(C(N)=O)cc(-c2ccc(Cl)cc2)cc1-c1ccc(S(N)(=O)=O)cc1 [HPN-01530, 4′-(3-aminopropanamido)-4-chloro-4″-sulfamoyl-[1,1′:3′,1″-terphenyl]-5′-carboxamide] |  |  | 3940 nM | 9400 nM | 460 nM |
| 990 nM | NC(=O)c1cc(/C=C/c2cccc(Br)c2)cc(-c2ccc(S(N)(=O)=O)cc2)c1N [HPN-01103, (E)-2-amino-5-(3-bromostyryl)-4′-sulfamoyl-[1,1′-biphenyl]-3-carboxamide] | 2140 nM | 3080 nM |  |  |  |
| 1200 nM | Nc1c(C(=O)Nc2ccsc2)cc(-c2ccc(Cl)cc2)cc1-c1ccc(S(N)(=O)=O)cc1 [HPN-01627, 4′-amino-4-chloro-4″-sulfamoyl-N-(thiophen-3-yl)-[1,1′:3′,1″-terphenyl]-5′-carboxamide] | 1950 nM | 4310 nM |  |  |  |
| 680 nM | NC(=O)c1cc(-c2ccc(Br)cc2)cc(-c2ccc(S(N)(=O)=O)cc2)c1NC(=O)CCO [HPN-01513, 4-bromo-4′-(3-hydroxypropanamido)-4″-sulfamoyl-[1, 1′:3′,1″-terphenyl]-5′-carboxamide] | 1630 nM | 2880 nM |  |  |  |
| 2350 nM | CCOC(=O)/C=C/c1cc(C(N)=O)c(N)c(-c2ccc(S(N)(=O)=O)cc2)c1 [HPN-01115, ethyl (E)-3-(6-amino-5-carbamoyl-4′-sulfamoyl-[1,1′-biphenyl]-3-yl)acrylate] | 6420 nM | 5990 nM |  |  |  |
| 460 nM | NC(=O)c1cc(C#CCOC(=O)c2ccc(O)cc2)cc(-c2ccc(S(N)(=O)=O)cc2)c1N [HPN-01220, 3-(6-amino-5-carbamoyl-4′-sulfamoyl-[1,1′-biphenyl]-3-yl)prop-2-yn-1-yl 4-hydroxybenzoate] | 1590 nM | 3210 nM |  |  |  |
| 500 nM | CCCC(=O)Nc1ccc(-c2cc(-c3ccc(Cl)cc3)cc(C(N)=O)c2N)cc1 [HPN-01409, 4′-amino-4″-butyramido-4-chloro-[1,1′:3′,1″-terphenyl]-5′-carboxamide] | 1050 nM | 1420 nM |  |  |  |
| 15300 nM | NC(=O)N1CCN(c2cc(-c3ccc(Cl)cc3)cc(-c3ccc(S(N)(=O)=O)cc3)c2N)CC1 [HPN-01623, 4-(4′-amino-4-chloro-4″-sulfamoyl-[1, 1′:3′,1″-terphenyl]-5′-yl)piperazine-1-carboxamide] | 38100 nM | 50000 nM |  |  |  |
| 790 nM | NC(=O)c1cc(-c2ccc(Cl)cc2)cc(-c2ccc(S(N)(=O)=O)cc2)c1NC(=O)CO [HPN-01502, 4-chloro-4′-(2-hydroxyacetamido)-4″-sulfamoyl-[1,1′:3′,1″-terphenyl]-5′-carboxamide] | 1650 nM | 2300 nM |  |  |  |
|  | furan-2-ylmethyl (E)-3-(6-amino-5-carbamoyl-4′-sulfamoyl-[1,1′-biphenyl]-3-yl)acrylate [HPN-01124] |  |  | 1860 nM | 3250 nM | 670 nM |
| 1110 nM | NC(=O)c1cc(-c2ccc(Cl)cc2)cc(N2CCN(S(N)(=O)=O)CC2)c1N [HPN-01427, 4-amino-4′-chloro-5-(4-sulfamoylpiperazin-1-yl)-[1,1′-biphenyl]-3-carboxamide] | 3320 nM | 3830 nM |  |  |  |
| 1760 nM | NC(=O)c1cc(Oc2ccc(Cl)cc2)cc(-c2ccc(S(N)(=O)=O)cc2)c1N [HPN-01313, 2-amino-5-(4-chlorophenoxy)-4′-sulfamoyl-[1,1′-biphenyl]-3-carboxamide] | 5510 nM | 9410 nM |  |  |  |
| 610 nM | Cc1cccc(C(=O)OCC#Cc2cc(C(N)=O)c(N)c(-c3ccc(S(N)(=O)=O)cc3)c2)c1 [HPN-01215, 3-(6-amino-5-carbamoyl-4′-sulfamoyl-[1,1′-biphenyl]-3-yl)prop-2-yn-1-yl 3-methylbenzoate] | 3720 nM | 6780 nM |  |  |  |
| 22800 nM | Nc1c(-c2ccc(S(N)(=O)=O)cc2)cc(-c2ccc(Br)cc2)cc1N1CCNCC1 [HPN-01622, 6′-amino-4″-bromo-5′-(piperazin-1-yl)-[1,1′:3′,1″-terphenyl]-4-sulfonamide] | 37100 nM | 50800 nM |  |  |  |
| 1500 nM | CCC(=O)Nc1ccc(-c2cc(-c3ccc(Cl)cc3)cc(C(N)=O)c2N)cc1 [HPN-01408, 4′-amino-4-chloro-4″-propionamido-[1,1′:3′,1″-terphenyl]-5′-carboxamide] | 2550 nM | 4370 nM |  |  |  |

| EC50 [3, 4] | Compound | EC50 ([1]; Homo sapiens, Hepatocyte) | EC50 ([2]; Homo sapiens, Hepatocyte) | EC50 [1] | EC50 [2] | EC50 ([3]; Huh7 cells) |
| --- | --- | --- | --- | --- | --- | --- |
|  | (E)-2-amino-5-(3-((4-methoxyphenyl)amino)-3-oxoprop-1-en-1-yl)-4′-sulfamoyl-[1,1′-biphenyl]-3-carboxamide [HPN-01128] |  |  | 2400 nM | 3470 nM | 890 nM |
| 700 nM | NC(=O)c1cc(-c2ccc(Cl)cc2)cc(-c2ccc(S(N)(=O)=O)cc2)c1NC(=O)C1CC1 [HPN-01503, 4-chloro-4′-(cyclopropanecarboxamido)-4″-sulfamoyl-[1,1′:3′,1″-terphenyl]-5′-carboxamide] | 3940 nM | 6480 nM |  |  |  |
| 830 nM | CC(=O)Oc1ccc(-c2cc(C(N)=O)c(N)c(-c3ccc(S(N)(=O)=O)cc3)c2)cc1 [HPN-01304, 4′-amino-5′-carbamoyl-4″-sulfamoyl-[1,1′:3′,1″-terphenyl]-4-yl acetate] | 1540 nM | 2770 nM |  |  |  |
| 420 nM | NC(=O)c1cc(-c2ccc(Cl)cc2)cc(-c2ccc(N3CC=NC3=O)cc2)c1N [HPN-01420, 4′-amino-4-chloro-4″-(2-oxo-2,5-dihydro-1H-imidazol-1-yl)-[1,1′:3′,1″-terphenyl]-5′-carboxamide] | 2140 nM | 2370 nM |  |  |  |
| 6480 nM | NC(=O)c1cc(-c2ccc(Cl)cc2)cc(-c2ccc(S(N)(=O)=O)cc2)c1NCCO [HPN-01531, 4-chloro-4′-((2-hydroxyethyl)amino)-4″-sulfamoyl-[1,1′:3′,1″-terphenyl]-5′-carboxamide] | 3150 nM | 5710 nM |  |  |  |
| 550 nM | NC(=O)c1cc(/C=C/c2ccccc2Cl)cc(-c2ccc(S(N)(=O)=O)cc2)c1N [HPN-01108, (E)-2-amino-5-(2-chlorostyryl)-4′-sulfamoyl-[1,1′-biphenyl]-3-carboxamide] | 2590 nM | 4670 nM |  |  |  |
| 3050 nM | Nc1c(C(=O)Nc2ccc[nH]2)cc(-c2ccc(Cl)cc2)cc1-c1ccc(S(N)(=O)=O)cc1 [HPN-01626, 4′-amino-4-chloro-N-(1H-pyrrol-2-yl)-4″-sulfamoyl-[1,1′:3′,1″-terphenyl]-5′-carboxamide] | 7220 nM | 12500 nM |  |  |  |
| 60 nM | NC(=O)c1cc(/C=C/C(=O)Nc2ccc(Cl)cc2)cc(-c2ccc(S(N)(=O)=O)cc2)c1N [HPN-01130, (E)-2-amino-5-(3-((4-chlorophenyl)amino)-3-oxoprop-1-en-1-yl)-4′-sulfamoyl-[1,1′-biphenyl]-3-carboxamide] | 970 nM | 1800 nM |  |  |  |
| 1360 nM | NC(=O)c1cc(C#CCOC(=O)c2ccc[nH]2)cc(-c2ccc(S(N)(=O)=O)cc2)c1N [HPN-01222, 3-(6-amino-5-carbamoyl-4′-sulfamoyl-[1,1′-biphenyl]-3-yl)prop-2-yn-1-yl 1H-pyrrole-2-carboxylate] | 7310 nM | 12800 nM |  |  |  |
| 1670 nM | NC(=O)c1cc(-c2ccc(Cl)cc2)cc(-c2ccc(S(N)(=O)=O)cc2)c1NC(=O)c1cccnc1 [HPN-01529, N-(5′-carbamoyl-4-chloro-4″-sulfamoyl-[1,1′:3′,1″-terphenyl]-4′-yl)nicotinamide] | 3090 nM | 18800 nM |  |  |  |
| 1140 nM | CCCNC(=O)c1cc(-c2ccc(Br)cc2)cc(-c2ccc(S(N)(=O)=O)cc2)c1N [HPN-01604, 4′-amino-4-bromo-N-propyl-4″-sulfamoyl-[1, 1′:3′,1″-terphenyl]-5′-carboxamide] | 1950 nM | 5710 nM |  |  |  |
| 1010 nM | COc1ccc(C#Cc2cc(C(N)=O)c(N)c(-c3ccc(S(N)(=O)=O)cc3)c2)cc1 [HPN-01204, 2-amino-5-((4-methoxyphenyl)ethynyl)-4′-sulfamoylbiphenyl-3-carboxamide] | 4180 nM | 4590 nM |  |  |  |
| 980 nM | NC(=O)c1cc(-c2ccc(Cl)cc2)cc(-c2ccc(NC(N)=S)cc2)c1N [HPN-01418, 4′-amino-4-chloro-4″-thioureido-[1,1′:3′,1″-terphenyl]-5′-carboxamide] | 2690 nM | 2450 nM |  |  |  |
| 790 nM | Nc1c(C(=O)Nc2ccccc2)cc(-c2ccc(Cl)cc2)cc1-c1ccc(S(N)(=O)=O)cc1 [HPN-01611, 4′-amino-4-chloro-N-phenyl-4″-sulfamoyl-[1,1′:3′,1″-terphenyl]-5′-carboxamide] | 1370 nM | 2240 nM |  |  |  |
| 140 nM | Nc1c(C(=O)NC2CC2)cc(-c2ccc(Br)cc2)cc1-c1ccc(S(N)(=O)=O)cc1 [HPN-01606, 4′-amino-4-bromo-N-cyclopropyl-4″-sulfamoyl-[1,1′:3′,1″-terphenyl]-5′-carboxamide] | 1130 nM | 2750 nM |  |  |  |

Source: patent US11000491B2, “Amino-aryl-benzamide compounds and methods of use thereof” (HEPANOVA, INC., priority 2017, dated 2021)
